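Each compound was tested at five concentrations against cells in 96-well plates for 48 hours. GI50: concentration for 50% inhibition of growth.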 The source made the active and inactive calls. No stated cut-off is given here; in the data, active = GI50 up to about 1.1 µM and inactive = higher.
Tests used:
Experiment in all cases: NCI-60 cell line screen, 48 h
[1] = tested on: SK-MEL-5
[2] = tested on: SNB-19
[3] = tested on: HT-29
[4] = tested on: KM12
[5] = tested on: DU-145
[6] = tested on: SR
[7] = tested on: SF-295
[8] = tested on: OVCAR-3
[9] = tested on: PC-3
[10] = tested on: MCF7
[11] = tested on: HCT-116
[12] = tested on: NCI-H226
[13] = tested on: M14
[14] = tested on: HCC 2998
[15] = tested on: LOX IMVI
[16] = tested on: SN12C
[17] = tested on: CCRF-CEM
[18] = tested on: OVCAR-4
[19] = tested on: MDA-N
[20] = tested on: K562
[21] = tested on: SNB-75
[22] = tested on: NCI-H460
[23] = tested on: UACC-257
[24] = tested on: Hs-578T
[25] = tested on: OVCAR-8
[26] = tested on: 786-0
[27] = tested on: Malme-3M
[28] = tested on: NCI-H522
[29] = tested on: ACHN
[30] = tested on: NCI-H23
[31] = tested on: BT-549
[32] = tested on: HL-60
[33] = tested on: A549
[34] = tested on: OVCAR-5
[35] = tested on: U-251
[36] = tested on: MDA-MB-435
[37] = tested on: UO-31
[38] = tested on: EKVX
[39] = tested on: SF-268
[40] = tested on: MOLT-4
[41] = tested on: TK-10
[42] = tested on: SF-539
[43] = tested on: T47D
[44] = tested on: IGROV-1
[45] = tested on: A498
[46] = tested on: SK-OV-3
[47] = tested on: HOP-62
[48] = tested on: UACC-62
[49] = tested on: MDA-MB-231
[50] = tested on: RPMI-8226
[51] = tested on: COLO 205
[52] = tested on: CAKI-1
[53] = tested on: NCI/ADR-RES
[54] = tested on: HCT-15
[55] = tested on: HOP-92
[56] = tested on: SW-620
[57] = tested on: SK-MEL-2
[58] = tested on: RXF 393
[59] = tested on: SK-MEL-28

With O=C1c2cn[nH]c2N=C(Nc2ccccc2)C1/N=C/c1ccc([N+](=O)[O-])cc1 (stereo not given) the GI50 [1] was > 10 µM (inactive), the GI50 [2] was > 10 µM (inactive) and the GI50 [3] was > 10 µM (inactive). For the same molecule, the GI50 [4] was > 10 µM (inactive), the GI50 [5] was > 10 µM (inactive) and the GI50 [6] was > 10 µM (inactive). For the same molecule, the GI50 [7] was > 10 µM (inactive), the GI50 [8] was > 10 µM (inactive) and the GI50 [9] was > 10 µM (inactive). For the same molecule, the GI50 [10] was > 10 µM (inactive), the GI50 [11] was > 10 µM (inactive) and the GI50 [12] was > 10 µM (inactive). The GI50 [13] was > 10 µM (inactive), the GI50 [14] was > 10 µM (inactive) and the GI50 [15] was > 10 µM (inactive). For the same molecule, the GI50 [16] was > 10 µM (inactive), the GI50 [17] was > 10 µM (inactive) and the GI50 [18] was > 10 µM (inactive). For the same molecule, the GI50 [19] was > 10 µM (inactive), the GI50 [20] was > 10 µM (inactive) and the GI50 [21] was > 10 µM (inactive). The GI50 [22] was > 10 µM (inactive), the GI50 [23] was > 10 µM (inactive) and the GI50 [24] was > 10 µM (inactive). The GI50 [25] was > 10 µM (inactive), the GI50 [26] was > 10 µM (inactive) and the GI50 [27] was > 10 µM (inactive). The GI50 [28] was > 10 µM (inactive), the GI50 [29] was > 10 µM (inactive) and the GI50 [30] was > 10 µM (inactive). The GI50 [31] was > 10 µM (inactive), the GI50 [32] was > 10 µM (inactive) and the GI50 [33] was > 10 µM (inactive). The GI50 [34] was > 10 µM (inactive), the GI50 [35] was > 10 µM (inactive) and the GI50 [36] was > 10 µM (inactive). The GI50 [37] was > 10 µM (inactive), the GI50 [38] was > 10 µM (inactive) and the GI50 [39] was > 10 µM (inactive). For the same molecule, the GI50 [40] was > 10 µM (inactive), the GI50 [41] was > 10 µM (inactive) and the GI50 [42] was > 10 µM (inactive).
In the case of O=C1N=C2SC(=S)N=C(S)N2NC12c1ccccc1-c1ccccc12, the GI50 [1] is reported as 8.49 µM (inactive), the GI50 [3] is reported as 7.01 µM (inactive) and the GI50 [4] is reported as > 10 µM (inactive). The GI50 [5] was > 10 µM (inactive), the GI50 [6] was > 10 µM (inactive) and the GI50 [43] was 1.38 µM (inactive). For the same molecule, the GI50 [44] was > 10 µM (inactive), the GI50 [45] was 1.55 µM (inactive) and the GI50 [10] was 6.81 µM (inactive). For the same molecule, the GI50 [13] was > 10 µM (inactive), the GI50 [14] was > 10 µM (inactive) and the GI50 [15] was > 10 µM (inactive). For the same molecule, the GI50 [46] was > 10 µM (inactive), the GI50 [47] was > 10 µM (inactive) and the GI50 [16] was > 10 µM (inactive). For the same molecule, the GI50 [17] was 7.78 µM (inactive), the GI50 [18] was 5.13 µM (inactive) and the GI50 [19] was > 10 µM (inactive). For the same molecule, the GI50 [20] was 8.17 µM (inactive), the GI50 [48] was > 10 µM (inactive) and the GI50 [21] was > 10 µM (inactive). For the same molecule, the GI50 [22] was 0.736 µM (active), the GI50 [49] was > 10 µM (inactive) and the GI50 [50] was 7.57 µM (inactive). The GI50 [23] was 5.68 µM (inactive), the GI50 [24] was > 10 µM (inactive) and the GI50 [25] was > 10 µM (inactive). The GI50 [26] was > 10 µM (inactive), the GI50 [27] was > 10 µM (inactive) and the GI50 [51] was > 10 µM (inactive). For the same molecule, the GI50 [52] was > 10 µM (inactive), the GI50 [30] was 9.4 µM (inactive) and the GI50 [31] was > 10 µM (inactive). The GI50 [32] was > 10 µM (inactive), the GI50 [53] was 3.61 µM (inactive) and the GI50 [33] was > 10 µM (inactive). The GI50 [54] was > 10 µM, the GI50 [35] was > 10 µM (inactive) and the GI50 [37] was 6.28 µM (inactive). The GI50 [38] was 3.67 µM (inactive), the GI50 [39] was > 10 µM (inactive) and the GI50 [40] was > 10 µM (inactive). For the same molecule, the GI50 [55] was > 10 µM (inactive), the GI50 [56] was > 10 µM (inactive) and the GI50 [41] was > 10 µM (inactive). The GI50 [42] was > 10 µM (inactive).
CCOC(=O)c1c(C)nc2c3ccccc3c(C#N)c(C)n12 was tested, and the GI50 [1] was 48.1 µM (inactive), the GI50 [2] was > 100 µM (inactive) and the GI50 [4] was > 100 µM (inactive). The GI50 [5] was 74.8 µM (inactive), the GI50 [6] was 33.9 µM (inactive) and the GI50 [57] was > 100 µM (inactive). For the same molecule, the GI50 [7] was 34.9 µM (inactive), the GI50 [8] was > 100 µM (inactive) and the GI50 [9] was > 100 µM (inactive). For the same molecule, the GI50 [44] was 23 µM (inactive), the GI50 [45] was > 100 µM (inactive) and the GI50 [10] was > 100 µM (inactive). For the same molecule, the GI50 [11] was 37.2 µM (inactive), the GI50 [12] was > 100 µM (inactive) and the GI50 [14] was > 100 µM (inactive). The GI50 [15] was > 100 µM (inactive), the GI50 [46] was 21.2 µM (inactive) and the GI50 [47] was 26.2 µM (inactive). The GI50 [16] was > 100 µM (inactive), the GI50 [17] was > 100 µM (inactive) and the GI50 [18] was 94 µM (inactive). For the same molecule, the GI50 [19] was > 10 µM (inactive), the GI50 [20] was > 100 µM (inactive) and the GI50 [48] was > 100 µM (inactive). For the same molecule, the GI50 [21] was 20.6 µM (inactive), the GI50 [22] was 49.4 µM (inactive) and the GI50 [49] was 14.3 µM (inactive). For the same molecule, the GI50 [50] was > 100 µM (inactive), the GI50 [23] was > 100 µM (inactive) and the GI50 [24] was 32.9 µM (inactive). The GI50 [25] was 49.1 µM (inactive), the GI50 [26] was > 10 µM (inactive) and the GI50 [52] was 79.3 µM (inactive). For the same molecule, the GI50 [28] was 23 µM (inactive), the GI50 [29] was 57.5 µM (inactive) and the GI50 [31] was > 100 µM (inactive). The GI50 [32] was > 100 µM (inactive), the GI50 [58] was 33.4 µM (inactive) and the GI50 [53] was 80.4 µM (inactive). The GI50 [33] was 50.1 µM (inactive), the GI50 [54] was > 100 µM and the GI50 [34] was 88.7 µM (inactive). For the same molecule, the GI50 [35] was 70.8 µM (inactive), the GI50 [36] was > 100 µM (inactive) and the GI50 [37] was 15.6 µM (inactive). For the same molecule, the GI50 [38] was 6.65 µM (inactive), the GI50 [40] was > 100 µM (inactive) and the GI50 [55] was 58.7 µM (inactive). For the same molecule, the GI50 [56] was > 100 µM (inactive), the GI50 [41] was > 100 µM (inactive) and the GI50 [59] was > 100 µM (inactive). For the same molecule, the GI50 [42] was > 100 µM (inactive).

From ChEMBL document CHEMBL1201862, “PubChem BioAssay data set” (2004)
